#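 A five-concentration, 48-hour dose response in 96-well plates underlies each endpoint, interpolated linearly between surrounding concentrations. At the GI50, growth is halved. At the TGI there is no net growth.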
# What was measured:
# Assay in all cases: growth of human tumour cells (NCI), 48 h
# 786-0 renal = tested on: 786-0 renal
# A498 renal = tested on: A498 renal
# A549 NSCLC = tested on: A549 NSCLC
# ACHN renal = tested on: ACHN renal
# BT-549 breast = tested on: BT-549 breast
# CAKI-1 renal = tested on: CAKI-1 renal
# CCRF-CEM leukemia = tested on: CCRF-CEM leukemia
# COLO 205 colon = tested on: COLO 205 colon
# DU-145 prostate = tested on: DU-145 prostate
# EKVX NSCLC = tested on: EKVX NSCLC
# HCC-2998 colon = tested on: HCC-2998 colon
# HCT-116 colon = tested on: HCT-116 colon
# HCT-15 colon = tested on: HCT-15 colon
# HL-60(TB) leukemia = tested on: HL-60(TB) leukemia
# HOP-62 NSCLC = tested on: HOP-62 NSCLC
# HOP-92 NSCLC = tested on: HOP-92 NSCLC
# HS 578T breast = tested on: HS 578T breast
# HT29 colon = tested on: HT29 colon
# IGROV1 ovarian = tested on: IGROV1 ovarian
# K-562 leukemia = tested on: K-562 leukemia
# KM12 colon = tested on: KM12 colon
# LOX IMVI melanoma = tested on: LOX IMVI melanoma
# M14 melanoma = tested on: M14 melanoma
# MCF7 breast = tested on: MCF7 breast
# MDA-MB-231 breast = tested on: MDA-MB-231 breast
# MDA-MB-435 = tested on: MDA-MB-435
# MDA-MB-468 breast = tested on: MDA-MB-468 breast
# MOLT-4 leukemia = tested on: MOLT-4 leukemia
# NCI-H226 lung = tested on: NCI-H226 lung
# NCI-H23 lung = tested on: NCI-H23 lung
# NCI-H460 lung = tested on: NCI-H460 lung
# NCI-H522 lung = tested on: NCI-H522 lung
# NCI/ADR-RES ovarian = tested on: NCI/ADR-RES ovarian
# OVCAR-3 ovarian = tested on: OVCAR-3 ovarian
# OVCAR-4 ovarian = tested on: OVCAR-4 ovarian
# OVCAR-5 ovarian = tested on: OVCAR-5 ovarian
# OVCAR-8 ovarian = tested on: OVCAR-8 ovarian
# PC-3 prostate = tested on: PC-3 prostate
# RPMI-8226 leukemia = tested on: RPMI-8226 leukemia
# RXF 393 renal = tested on: RXF 393 renal
# SF-268 CNS = tested on: SF-268 CNS
# SF-295 CNS = tested on: SF-295 CNS
# SF-539 CNS = tested on: SF-539 CNS
# SK-MEL-2 melanoma = tested on: SK-MEL-2 melanoma
# SK-MEL-28 melanoma = tested on: SK-MEL-28 melanoma
# SK-MEL-5 melanoma = tested on: SK-MEL-5 melanoma
# SK-OV-3 ovarian = tested on: SK-OV-3 ovarian
# SN12C renal = tested on: SN12C renal
# SNB-19 CNS = tested on: SNB-19 CNS
# SNB-75 CNS = tested on: SNB-75 CNS
# SR leukemia = tested on: SR leukemia
# SW-620 colon = tested on: SW-620 colon
# T-47D breast = tested on: T-47D breast
# TK-10 renal = tested on: TK-10 renal
# U251 CNS = tested on: U251 CNS
# UACC-257 melanoma = tested on: UACC-257 melanoma
# UACC-62 melanoma = tested on: UACC-62 melanoma
# UO-31 renal = tested on: UO-31 renal
structure (smiles),measurement,setting,value
O=C(N/N=C/c1occc1Br)c1[nH]c2ccc(Br)cc2c1-c1ccccc1,GI50,786-0 renal,677 nM
same,TGI,786-0 renal,16.7 µM
same,GI50,A498 renal,14.8 µM
same,TGI,A498 renal,28.8 µM
same,GI50,A549 NSCLC,1950 nM
same,TGI,A549 NSCLC,21.9 µM
same,GI50,ACHN renal,952 nM
same,TGI,ACHN renal,16.2 µM
same,GI50,BT-549 breast,743 nM
same,TGI,BT-549 breast,12.9 µM
same,GI50,CAKI-1 renal,698 nM
same,TGI,CAKI-1 renal,17.1 µM
same,GI50,CCRF-CEM leukemia,512 nM
same,TGI,CCRF-CEM leukemia,11 µM
same,GI50,COLO 205 colon,561 nM
same,TGI,COLO 205 colon,3.97 µM
same,GI50,DU-145 prostate,2710 nM
same,TGI,DU-145 prostate,13.1 µM
same,GI50,EKVX NSCLC,1930 nM
same,TGI,EKVX NSCLC,17.3 µM
same,GI50,HCC-2998 colon,1790 nM
same,TGI,HCC-2998 colon,13.7 µM
same,GI50,HCT-116 colon,557 nM
same,TGI,HCT-116 colon,12.6 µM
same,GI50,HCT-15 colon,516 nM
same,TGI,HCT-15 colon,11.7 µM
same,GI50,HL-60(TB) leukemia,344 nM
same,TGI,HL-60(TB) leukemia,2020 nM
same,GI50,HOP-62 NSCLC,668 nM
same,TGI,HOP-62 NSCLC,18.1 µM
same,GI50,HOP-92 NSCLC,11.2 µM
same,TGI,HOP-92 NSCLC,24.7 µM
same,GI50,HS 578T breast,759 nM
same,TGI,HS 578T breast,18.4 µM
same,GI50,HT29 colon,456 nM
same,TGI,HT29 colon,2680 nM
same,GI50,IGROV1 ovarian,1230 nM
same,TGI,IGROV1 ovarian,13.7 µM
same,GI50,K-562 leukemia,384 nM
same,TGI,K-562 leukemia,> 100 µM
same,GI50,KM12 colon,1260 nM
same,TGI,KM12 colon,14.1 µM
same,GI50,LOX IMVI melanoma,663 nM
same,TGI,LOX IMVI melanoma,12.7 µM
same,GI50,M14 melanoma,669 nM
same,TGI,M14 melanoma,15.8 µM
same,GI50,MCF7 breast,323 nM
same,TGI,MCF7 breast,11.9 µM
same,GI50,MDA-MB-231 breast,1100 nM
same,TGI,MDA-MB-231 breast,14.6 µM
same,GI50,MDA-MB-435,249 nM
same,TGI,MDA-MB-435,875 nM
same,GI50,MDA-MB-468 breast,383 nM
same,TGI,MDA-MB-468 breast,16.9 µM
same,GI50,MOLT-4 leukemia,1450 nM
same,TGI,MOLT-4 leukemia,12.8 µM
same,GI50,NCI-H226 lung,2510 nM
same,TGI,NCI-H226 lung,16.6 µM
same,GI50,NCI-H23 lung,2050 nM
same,TGI,NCI-H23 lung,13.2 µM
same,GI50,NCI-H460 lung,756 nM
same,TGI,NCI-H460 lung,10.9 µM
same,GI50,NCI-H522 lung,183 nM
same,TGI,NCI-H522 lung,500 nM
same,GI50,NCI/ADR-RES ovarian,348 nM
same,TGI,NCI/ADR-RES ovarian,3.24 µM
same,GI50,OVCAR-3 ovarian,351 nM
same,TGI,OVCAR-3 ovarian,11.8 µM
same,GI50,OVCAR-4 ovarian,7.1 µM
same,TGI,OVCAR-4 ovarian,22 µM
same,GI50,OVCAR-5 ovarian,2790 nM
same,TGI,OVCAR-5 ovarian,13.6 µM
same,GI50,OVCAR-8 ovarian,2300 nM
same,TGI,OVCAR-8 ovarian,11.3 µM
same,GI50,PC-3 prostate,941 nM
same,TGI,PC-3 prostate,14.9 µM
same,GI50,RPMI-8226 leukemia,2440 nM
same,TGI,RPMI-8226 leukemia,20.5 µM
same,GI50,RXF 393 renal,2680 nM
same,TGI,RXF 393 renal,22.2 µM
same,GI50,SF-268 CNS,1740 nM
same,TGI,SF-268 CNS,16.2 µM
same,GI50,SF-295 CNS,359 nM
same,TGI,SF-295 CNS,13.5 µM
same,GI50,SF-539 CNS,1160 nM
same,TGI,SF-539 CNS,4.36 µM
same,GI50,SK-MEL-2 melanoma,675 nM
same,TGI,SK-MEL-2 melanoma,16.9 µM
same,GI50,SK-MEL-28 melanoma,5.05 µM
same,TGI,SK-MEL-28 melanoma,20.9 µM
same,GI50,SK-MEL-5 melanoma,677 nM
same,TGI,SK-MEL-5 melanoma,6.21 µM
same,GI50,SK-OV-3 ovarian,1500 nM
same,TGI,SK-OV-3 ovarian,18.1 µM
same,GI50,SN12C renal,1510 nM
same,TGI,SN12C renal,12.5 µM
same,GI50,SNB-19 CNS,2850 nM
same,TGI,SNB-19 CNS,19.3 µM
same,GI50,SNB-75 CNS,832 nM
same,TGI,SNB-75 CNS,14.2 µM
same,GI50,SR leukemia,459 nM
same,TGI,SR leukemia,30 µM
same,GI50,SW-620 colon,443 nM
same,TGI,SW-620 colon,14.3 µM
same,GI50,T-47D breast,484 nM
same,TGI,T-47D breast,19.7 µM
same,GI50,TK-10 renal,7.68 µM
same,TGI,TK-10 renal,26.5 µM
same,GI50,U251 CNS,3.22 µM
same,TGI,U251 CNS,16.8 µM
same,GI50,UACC-257 melanoma,12.5 µM
same,TGI,UACC-257 melanoma,28.8 µM
same,GI50,UACC-62 melanoma,384 nM
same,TGI,UACC-62 melanoma,16.7 µM
same,GI50,UO-31 renal,746 nM
same,TGI,UO-31 renal,21.1 µM

# Reference: PubChem BioAssay (NCI)
